Experimental data reported in ChEMBL document CHEMBL5113541, “Design, Synthesis, and Monoamine Oxidase B Selective Inhibitory Activity of N-Arylated Heliamine Analogues” (ACS Med Chem Lett, 2022).
Converted amounts (≈) assume the structure as drawn.

How the values were obtained:
[1] = Metabolic stability in mouse liver microsome assessed as compound remaining at 500 uM measured at 10 mins by LC-MS/MS method; assay type: ADME; settings: liver microsomes, read-out: Stability
[2] = Metabolic stability in mouse liver microsome assessed as compound remaining at 500 uM measured at 60 mins by LC-MS/MS method; assay type: ADME; settings: liver microsomes, read-out: Stability
[3] = Metabolic stability in human liver microsome assessed as compound remaining at 500 uM measured at 10 mins by LC-MS/MS method; assay type: ADME; settings: liver microsomes, read-out: Stability
[4] = target: T1, MAO-B (amine oxidase [flavin-containing] B) (Homo sapiens, UniProt P27338); assay: Inhibition of human MAO-B assessed as residual activity at 10 uM relative to control; settings: read-out: Activity
T1 sequence (P27338 whole entry): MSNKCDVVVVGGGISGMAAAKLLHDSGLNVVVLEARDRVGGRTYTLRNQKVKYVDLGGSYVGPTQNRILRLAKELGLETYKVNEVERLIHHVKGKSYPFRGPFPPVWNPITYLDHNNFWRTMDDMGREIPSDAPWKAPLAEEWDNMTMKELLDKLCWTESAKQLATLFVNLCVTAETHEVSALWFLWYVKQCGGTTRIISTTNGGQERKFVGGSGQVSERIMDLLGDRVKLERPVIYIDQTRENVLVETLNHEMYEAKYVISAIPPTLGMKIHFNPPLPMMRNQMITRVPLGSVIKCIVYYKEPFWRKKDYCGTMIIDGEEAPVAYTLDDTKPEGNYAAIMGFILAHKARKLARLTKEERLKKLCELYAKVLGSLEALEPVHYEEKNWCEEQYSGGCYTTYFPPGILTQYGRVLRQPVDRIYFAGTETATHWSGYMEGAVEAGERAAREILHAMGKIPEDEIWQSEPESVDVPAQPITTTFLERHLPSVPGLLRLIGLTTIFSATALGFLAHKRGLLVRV

[5] = Lipophilicity, log D of the compound at pH 7.4; assay type: physicochemical; settings: buffer
[6] = Metabolic stability in human liver microsome assessed as compound remaining at 500 uM measured at 60 mins by LC-MS/MS method; assay type: ADME; settings: liver microsomes, read-out: Stability
[7] = Solubility of compound in PBS at pH 7.0 at 100 uM measured for 20 mins by LC-MS/MS analysis; assay type: physicochemical
[8] = Apparent permeability of the compound in human Caco-2 cells at 25 uM measured after 2 hrs by LC-MS/MS analysis; assay type: ADME, cell-based
[9] = target: T2, Amine oxidase [flavin-containing] A (Mus musculus, UniProt Q64133); assay: Inhibition of mouse MAO-A
T2 sequence (Q64133 whole entry): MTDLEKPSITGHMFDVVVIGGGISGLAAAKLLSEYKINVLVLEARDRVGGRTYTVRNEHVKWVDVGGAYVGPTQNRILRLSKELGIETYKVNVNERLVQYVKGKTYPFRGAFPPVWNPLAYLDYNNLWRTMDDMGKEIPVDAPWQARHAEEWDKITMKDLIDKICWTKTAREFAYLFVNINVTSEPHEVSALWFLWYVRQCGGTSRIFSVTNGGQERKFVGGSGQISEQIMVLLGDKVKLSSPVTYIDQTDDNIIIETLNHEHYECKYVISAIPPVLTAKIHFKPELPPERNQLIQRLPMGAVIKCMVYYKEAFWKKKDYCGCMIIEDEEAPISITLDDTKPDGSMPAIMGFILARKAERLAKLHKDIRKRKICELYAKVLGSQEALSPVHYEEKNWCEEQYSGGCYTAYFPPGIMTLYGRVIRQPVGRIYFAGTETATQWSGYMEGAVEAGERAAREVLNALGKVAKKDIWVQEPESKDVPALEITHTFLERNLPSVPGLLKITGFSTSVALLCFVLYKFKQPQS

[10] = target: T3, Amine oxidase [flavin-containing] B (Mus musculus, UniProt Q8BW75); assay: Inhibition of mouse MAO-B
T3 sequence (Q8BW75 whole entry): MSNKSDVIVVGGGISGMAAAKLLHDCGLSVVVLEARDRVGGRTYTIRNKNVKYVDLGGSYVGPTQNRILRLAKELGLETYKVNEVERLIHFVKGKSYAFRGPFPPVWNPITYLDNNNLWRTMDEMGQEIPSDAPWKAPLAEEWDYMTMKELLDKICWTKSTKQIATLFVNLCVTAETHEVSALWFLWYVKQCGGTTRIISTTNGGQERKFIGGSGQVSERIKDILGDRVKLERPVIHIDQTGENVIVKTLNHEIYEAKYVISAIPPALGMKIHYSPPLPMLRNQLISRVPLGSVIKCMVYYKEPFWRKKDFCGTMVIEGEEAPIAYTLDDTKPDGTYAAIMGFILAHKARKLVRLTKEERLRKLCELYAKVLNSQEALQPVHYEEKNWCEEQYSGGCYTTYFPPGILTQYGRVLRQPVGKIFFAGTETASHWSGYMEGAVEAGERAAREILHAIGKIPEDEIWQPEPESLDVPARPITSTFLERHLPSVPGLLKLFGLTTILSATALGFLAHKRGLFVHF

[11] = target: T4, Amine oxidase [flavin-containing] A (Homo sapiens, UniProt P21397); assay: Inhibition of human MAO-A measure after 1 hr by microplate reader analysis
T4 sequence (P21397 whole entry): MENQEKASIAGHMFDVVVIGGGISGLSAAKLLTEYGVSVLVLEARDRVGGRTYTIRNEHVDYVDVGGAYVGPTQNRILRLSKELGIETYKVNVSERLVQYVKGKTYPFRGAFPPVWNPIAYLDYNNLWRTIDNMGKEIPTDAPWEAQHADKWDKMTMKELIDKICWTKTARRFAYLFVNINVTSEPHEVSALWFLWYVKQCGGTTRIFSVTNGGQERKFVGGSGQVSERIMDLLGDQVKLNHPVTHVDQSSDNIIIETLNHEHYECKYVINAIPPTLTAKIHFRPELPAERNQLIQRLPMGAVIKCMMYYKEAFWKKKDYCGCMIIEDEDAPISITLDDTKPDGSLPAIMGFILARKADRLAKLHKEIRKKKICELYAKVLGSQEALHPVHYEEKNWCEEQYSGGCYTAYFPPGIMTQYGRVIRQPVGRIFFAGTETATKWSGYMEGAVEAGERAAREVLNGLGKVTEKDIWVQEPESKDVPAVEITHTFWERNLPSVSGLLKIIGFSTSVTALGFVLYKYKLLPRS

SH-SY5Y = assay: Cytotoxicity against human SH-SY5Y cells assessed as inhibition of cell viability at 10 uM after 24 hrs by MTS assay relative to control; assay type: functional
[12] = target: T5, Amine oxidase [flavin-containing] B (Homo sapiens, UniProt P27338); assay: Inhibition of human MAO-B measure after 1 hr by microplate reader analysis
T5 sequence (P27338 whole entry): T1 sequence (P27338 whole entry)

Rattus norvegicus = species on record: Rattus norvegicus; assay: Inhibition of rat brain stem MAO at 2 mM using serotonin as substrate incubated for 30 mins by fluorometric analysis relative to control; assay type: tissue-based; settings: Brainstem
[13] = target: T4, Amine oxidase [flavin-containing] A; assay: Inhibition of recombinant human MAO-A

SMILES | remaining at 10 min [1] | remaining at 1 h [2] | remaining at 10 min [3] | activity at 10 µM [4] | logD [5] | remaining at 1 h [6] | solubility at 20 min, 100 µM [7] | Papp at 2 h, 25 µM [8] | IC50 [11] | IC50 [12] | IC50 [13] | IC50 [9] | IC50 [10] | Activity (SH-SY5Y) | inhibition (Rattus norvegicus)
COc1cc2c(cc1OC)C(C)N(c1ccc(F)cc1)CC2 (centres undefined) | 1.2% | 0.3% | 71.1% |  | 4.8 | 23.2% | 7.6 µM (≈ 2.29 µg/mL) | 8.3 ×10⁻⁶ cm/s |  |  |  |  |  |  | 
COc1cc2c(cc1OC)CN(c1cccnc1)CC2 | 9.5% | 0.2% | 66.9% | 86% | 3.7 | 15.5% | 78.9 µM (≈ 21.3 µg/mL) | 39.5 ×10⁻⁶ cm/s |  |  |  |  |  |  | 
COc1cc2c(cc1OC)CNCC2 |  |  |  | 96% |  |  |  |  |  |  |  | > 100 µM | > 1000 µM |  | 
COC(=O)c1ccccc1N1CCc2cc(OC)c(OC)cc2C1 | 0.4% | 0.1% | 7.2% | 103% | 4.3 | 0.2% | 12.7 µM (≈ 4.16 µg/mL) | 2.1 ×10⁻⁶ cm/s |  |  |  |  |  |  | 
COc1cc2c(cc1OC)C(C)N(c1ccc(C=O)cc1)CC2 (centres undefined) | 15.5% | 1% | 66.1% |  | 4 | 18% | 22.2 µM (≈ 6.91 µg/mL) | 7.4 ×10⁻⁶ cm/s |  |  |  |  |  |  | 
COc1cc2c(cc1OC)[C@@H](C)NCC2 |  |  |  |  |  |  |  |  |  |  |  |  |  |  | 48%
COc1cc2c(cc1OC)CN(c1ccccn1)CC2 | 9.9% | 0.2% | 70.8% | 89% | 3.7 | 17.7% | 0.8 µM (≈ 0.216 µg/mL) | 38.8 ×10⁻⁶ cm/s |  |  |  |  |  |  | 
COc1cc2c(cc1OC)CN(c1cc(C(F)(F)F)cc(C(F)(F)F)c1)CC2 | 83.1% | 26.9% | 98.7% | 86% | 5.7 | 62.2% | < 0.5 µM | < 0.1 ×10⁻⁶ cm/s |  |  |  |  |  |  | 
COc1cc2c(cc1OC)C(C)N(c1ccc(CO)cc1)CC2 (centres undefined) | 83.4% | 33.8% | 91.3% |  | 3.4 | 78.4% | 89.8 µM (≈ 28.1 µg/mL) | 34.4 ×10⁻⁶ cm/s |  |  |  |  |  |  | 
COc1cc2c(cc1OC)CN(c1cc(F)cc(F)c1)CC2 |  |  |  | 24% |  |  |  |  | > 100 µM | 5.1 µM |  |  |  | 97.3% | 
COc1cc2c(cc1OC)CN(CCCOc1ccc(C(C)=O)c(O)c1)CC2 |  |  |  |  |  |  |  |  |  |  | 8.1 µM |  |  |  | 

Continued, in another order:

remaining at 10 min [1] | remaining at 1 h [2] | remaining at 10 min [3] | activity at 10 µM [4] | logD [5] | remaining at 1 h [6] | solubility at 20 min, 100 µM [7] | Papp at 2 h, 25 µM [8] | IC50 [11] | IC50 [12] | IC50 [13] | SMILES | IC50 [9] | IC50 [10] | Activity (SH-SY5Y) | inhibition (Rattus norvegicus)
92.6% | 64.4% | 97.8% | 79% | 3.1 | 79.5% | 93.9 µM (≈ 28.1 µg/mL) | 26.8 ×10⁻⁶ cm/s |  |  |  | COc1cc2c(cc1OC)CN(c1ccc(CO)cc1)CC2 |  |  |  | 
2.5% | 0.6% | 56.8% | 57% | 4.5 | 56.9% | 20.3 µM (≈ 5.83 µg/mL) | 20.4 ×10⁻⁶ cm/s | > 100 µM | 13.5 µM |  | COc1cc2c(cc1OC)CN(c1ccc(F)cc1)CC2 |  |  | 104% | 
12.6% | 0.4% | 61% | 14% | 3.7 | 9.2% | 6.6 µM (≈ 1.96 µg/mL) | 2.8 ×10⁻⁶ cm/s | > 100 µM | 1.55 µM |  | COc1cc2c(cc1OC)CN(c1ccc(C=O)cc1)CC2 |  |  | 99% | 
22.5% | 0.5% | 94.7% | 107% | 3.2 | 72.1% | 89.6 µM (≈ 25.6 µg/mL) | 43.7 ×10⁻⁶ cm/s |  |  |  | COc1cc2c(cc1OC)CN(c1cccc(O)c1)CC2 |  |  |  | 
12.1% | 1.7% | 77.1% | 95% | 4.2 | 53.5% | 3.7 µM (≈ 1.11 µg/mL) | 10.1 ×10⁻⁶ cm/s |  |  |  | COc1ccc(N2CCc3cc(OC)c(OC)cc3C2)cc1 |  |  |  | 
3.7% | 0.4% | 63.9% | 81% | 4.5 | 10.5% | 19.1 µM (≈ 5.14 µg/mL) | 21 ×10⁻⁶ cm/s |  |  |  | COc1cc2c(cc1OC)CN(c1ccccc1)CC2 |  |  |  | 
91.6% | 91.8% | 91.8% | 97% | 2.5 | 88.4% | ≥ 95 µM | 81.2 ×10⁻⁶ cm/s |  |  |  | COc1cc2c(cc1OC)CN(c1ccc(C(=O)O)cc1)CC2 |  |  |  | 
